The inhibition is the percentage by which the read-out fell short of the control. The chromatographic logP is lipophilicity estimated from chromatographic retention. A lower chromatographic logP goes with lower lipophilicity.

The text below walks through data of patent US20230055705A1, “SUBSTITUTED THIOPHENE CARBOXAMIDES AND DERIVATIVES THEREOF” (Bayer Aktiengesellschaft, priority 2019, published 2023).

Series [1] relates to salicylate responsive promoter sequence of the PR1 (pathogenesis-related protein I) gene (AT2G14610). The experiment in a line: Induction of defense gene expression in Arabidopsis thaliana (PR1 promoter-GFP reporter plants). The settings on record: Arabidopsis thaliana, 72 h, 3rd day after spraying, mock treated leaves set as 1.00, read-out: relative fluorescence value; for fold induction at 75 ppm: 75 ppm of compound. Format: in vivo. Put shortly: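 Transgenic A. thaliana carrying GFP under the salicylate-responsive PR1 promoter, grown five days, then sprayed with compounds. Whole-plant fluorescence imaged and quantified on day 3 post-spray, expressed relative to mock-treated leaf background set at 1.00.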

A further series deals with Alternaria alternata. The experiment in a line: Alternaria alternata in vitro cell test. Format: cell-based. The settings on record: 120 h, 20 ppm of active ingredient, 5 days incubation, read-out: efficacy (inhibition of fungal growth). Put shortly: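 Growth inhibition compares absorbance of treated versus untreated wells after 5 days' culture of A. alternata spore suspensions with compound, covering germination and mycelium growth. Medium was glucose, mycological peptone and yeast extract; final DMSO ≤1%.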

The test system of series [2] is Xanthomonas campestris pv. campestris. The experiment in a line: Xanthomonas campestris pv. campestris in vitro cell test. Format: cell-based. The settings on record: 20 ppm of active ingredient, 24 h incubation, read-out: efficacy (inhibition of bacteria growth). Put shortly:
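Liquid-culture growth test in LB broth, with compound dissolved in DMSO (≤1% final) and added to an OD-adjusted bacterial inoculum. Absorbance after 24 h incubation was compared with wells lacking active ingredient to give inhibition.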

Series [3] concerns Pseudomonas syringae pv. tomato. Put plainly: Pseudomonas syringae pv. tomato in vitro cell test. Type of series: cell-based. The settings on record: 20 ppm of active ingredient, 24 h incubation, read-out: efficacy (inhibition of bacteria growth). The essentials:
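Compounds in 1% final DMSO were added to LB broth containing OD-adjusted bacterial suspension. After 24 h, absorbance measured growth, and inhibition was expressed relative to wells lacking active ingredient.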

The test system of a further series is Peronospora parasitica. Put plainly: In vivo preventive test on Peronospora parasitica (Crucifer downy mildew). The settings on record: Hyaloperonospora parasitica, in Brassica oleracea, 120 h, cabbage, evaluated 5 days after inoculation, read-out: efficacy; for pest or weed control at 31 ppm: 31 ppm of active ingredient; for pest or weed control at 125 ppm: 125 ppm of active ingredient. The essentials: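 Young cabbage plants were sprayed with compound in acetone/DMSO/Tween diluted with water, then inoculated 72 h later with a Peronospora parasitica spore suspension. Plants were kept 5 days at 20 °C and 100% RH. Efficacy was scored with 0% equal to solvent-treated controls and 100% meaning no disease.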

Series [4] has as its system Xanthomonas campestris pv. campestris. Put plainly: In vivo preventive test on Xanthomonas campestris pv. campestris (black rot on cabbage). The settings on record: evaluated 8 or 10 days after inoculation, read-out: efficacy; for pest or weed control at 31 ppm: 31 ppm of active ingredient; for pest or weed control at 125 ppm: 125 ppm of active ingredient. Put shortly:
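Young cabbage plants sprayed with compound in acetone/DMSO/Tween diluted in water; solvent-only controls. Leaves sprayed with bacterial suspension 72 h later, then held 8 or 10 days at 27° C and 95% relative humidity. Efficacy scored 8 or 10 days post-inoculation, 0% matching controls, 100% meaning no disease.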

For a further series, the system named is Uromyces appendiculatus. The experiment in a line: In vivo preventive test on Uromyces appendiculatus (bean rust). The settings on record: 240 h, 125 ppm of active ingredient, evaluated 10 days after inoculation, read-out: efficacy. Put shortly: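 Young bean plants sprayed with compound in acetone/DMSO/Tween diluted in water, inoculated 72 h later with U. appendiculatus spore suspension. Held 24 h at 20 °C, 100% RH, then 9 days at 20 °C, 70-80% RH. Efficacy scored 10 days post-inoculation versus solvent-treated controls (0% = control, 100% = no disease).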

Series [5] in a line: LogP by HPLC on reversed phase columns (EEC directive 79/831 Annex V.A8). Type of series: physicochemical. The settings on record: method [a]: LC-UV, acidic range, 0.1% formic acid in water and acetonitrile as eluent (linear gradient 10% to 95% acetonitrile). Put shortly: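 LogP derived from retention time by linear interpolation against a C3–C16 alkan-2-one calibration series of known LogP. Measured by HPLC on reversed-phase columns following EEC 79/831 Annex V.A8. UV spectra over 200–400 nm at signal peaks gave lambda-max.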

For the compound `COC(=O)[C@H](CSC(=O)N(C)C)NC(=O)c1sc(Cl)c(Cl)c1Cl` [I.142], the fold induction at 75 ppm in series [1] was above 2. Moreover, the fold induction at 300 ppm in series [1] is above 2. Also, the inhibition at 20 ppm (in the series with Alternaria alternata; in series [2]; in series [3]) was at most 30% in each case. Also, the pest or weed control at 31 ppm lay in the range of 90 to 100% in the series with Peronospora parasitica and 80 to 89% in series [4]. In addition, the pest or weed control at 125 ppm (in the series with Peronospora parasitica; in series [4]; with Uromyces appendiculatus) was 90 to 100% each time. Further, the chromatographic logP in series [5] is 3.56.
Turning to `CCOC(=O)C(CSC)NC(=O)c1sc(Cl)c(Cl)c1Cl` (centres unmarked) [I.143], the fold induction at 75 ppm in series [1] was above 2. The fold induction at 300 ppm in series [1] is above 2. Moreover, the inhibition at 20 ppm (in the series on Alternaria alternata; in series [2]; in series [3]) was at most 30% in each case. Besides, the pest or weed control at 31 ppm (in the series on Peronospora parasitica; in series [4]) was 90 to 100% throughout. For the same compound, the figures for the pest or weed control at 125 ppm (in the series with Peronospora parasitica; in series [4]; in the series with Uromyces appendiculatus) were 90 to 100%, 80 to 89% and 90 to 100%, respectively. Moreover, the chromatographic logP in series [5] (reversed phase HPLC columns) stood at 4.29.
With `COC(=O)C[C@H](NC(=O)c1sc(Cl)c(Cl)c1Cl)C(=O)OC` [I.144], the fold induction at 75 ppm in series [1] is above 2. Further, the fold induction at 300 ppm in series [1] was above 2. For the same compound, the inhibition at 20 ppm (in the series with Alternaria alternata; in series [2]; in series [3]) was at most 30% each time. In addition, the figures for the pest or weed control at 31 ppm (in the series on Peronospora parasitica; in series [4]) were 90 to 100% and 80 to 89%, respectively. Also, the pest or weed control at 125 ppm in the series with Peronospora parasitica and in the series on Uromyces appendiculatus was 90 to 100% throughout. For the same compound, in series [5] (reversed phase HPLC columns), the chromatographic logP was 3.28.
